Source: ChEMBL document CHEMBL1125050, “Potential antisecretory antidiarrheals. 2. Alpha 2-adrenergic 2-[(aryloxy)alkyl]imidazolines” (J Med Chem, 1990)
Calls of active or inactive are those of the source.

Tests used:
Oryctolagus cuniculus [1] = species: Oryctolagus cuniculus; assay: Inhibition of increase in potential difference caused by diarrhea inducing secretogogues determined in rabbit; ++ = active; format: functional, organism-based
Rattus norvegicus [2] = species: Rattus norvegicus; assay: Activity in the spontaneously hypertensive rats (SHR); active = post treatment BP changed; format: functional, organism-based
Rattus norvegicus [3] = species: Rattus norvegicus; assay: animal or person; conditions: sc, read-out: ID50
[4] = Partition coefficient (logP); format: physicochemical; conditions: octanol/water
Oryctolagus cuniculus [5] = species: Oryctolagus cuniculus; assay: Inhibition of increase in potential difference caused by diarrhea inducing secretogogues determined in rabbit; + = moderate activity; format: functional, organism-based
Oryctolagus cuniculus [6] = species: Oryctolagus cuniculus; assay: Inhibition of increase in potential difference caused by diarrhea inducing secretogogues determined in rabbit; 0 = inactive; format: functional
Rattus norvegicus [7] = format: functional; conditions: po, read-out: ID50 (the source's name)
Rattus norvegicus [8] = format: functional; conditions: sc, read-out: ID50 (the source's name)
Rattus norvegicus [9] = species: Rattus norvegicus; assay: Activity in the spontaneously hypertensive rats (SHR); inactive = post treatment BP did not change; format: functional, organism-based
Oryctolagus cuniculus [10] = species: Oryctolagus cuniculus; assay: IInhibition of increase in potential difference caused by diarrhea inducing secretogogues determined in rabbit; 0 = inactive; format: functional
Rattus norvegicus [11] = species: Rattus norvegicus; assay: Activity in the spontaneously hypertensive rats (SHR); rats died due to convulsive side effects; format: functional, organism-based
Rattus norvegicus [12] = species: Rattus norvegicus; assay: Activity in the spontaneously hypertensive rats (SHR); rats died due to exophthalmic side effects; format: functional, organism-based

With Cc1ccc(N)c(C)c1OC(C)C1=NCCN1 (centres undefined) the Activity (Oryctolagus cuniculus [1]) was “Active”, the Activity (Rattus norvegicus [2]) was “Active” and the ED50 (Rattus norvegicus [3]) was 1 mg/kg. The logP ([4]; read-out: logP) was 3.31.

For CCOC(=O)Nc1ccc(C)c(OC(C)C2=NCCN2)c1C (centres undefined), the Activity (Rattus norvegicus [2]) was “Active”, the ED50 (Rattus norvegicus [3]) was 3 mg/kg and the Activity (Oryctolagus cuniculus [5]) was “moderate activity”. It also gave a logP ([4]; read-out: logP) of 4.4.

Cc1cccc(C)c1OC(C)C1=NCCCN1 (centres undefined) gave an ED50 (Rattus norvegicus [3]) of over 100 mg/kg and an Activity (Oryctolagus cuniculus [6]) of 0.

Cc1c(N)cccc1OC(C)C1=NCCN1 (stereo in doubt; 32) [listing 1 of 2 here] gave a logP ([4]; read-out: logP) of 2.

Work on CC(=O)Nc1cccc(OC(C)C2=NCCN2)c1C (centres undefined) yielded an ED50 (Rattus norvegicus [3]) of 7 mg/kg, a logP ([4]; read-out: logP) of 2.43 and an Activity (Oryctolagus cuniculus [6]) of 0.

COc1cccc(OC)c1OC(C)C1=NCCN1 (centres undefined) showed an ED50 (Rattus norvegicus [3]) of over 100 mg/kg.

Cc1cc2[nH]cnc2c(C)c1OC(C)C1=NCCN1 (centres undefined) showed an ED50 (Rattus norvegicus [3]) of over 100 mg/kg and an Activity (Oryctolagus cuniculus [6]) of 0.

In the case of Cc1c(N)cccc1OC(C)C1=NCCN1 (single isomer, unassigned), the Activity (Rattus norvegicus [2]) is reported as “Active”.

In the case of Cc1c(OCc2ccccc2)cccc1OC(C)C1=NCCN1 (centres undefined), the ED50 (Rattus norvegicus [3]) is reported as over 100 mg/kg and the Activity (Oryctolagus cuniculus [5]) is reported as “moderate activity”.

With C=CCc1cccc(CC=C)c1OC(C)C1=NCCN1 (centres undefined) the ED50 (Rattus norvegicus [3]) was over 100 mg/kg.

For Cc1cccc(C)c1OC(C)(C)C1=NCCN1, the Activity (Oryctolagus cuniculus [1]) was “Active”, the ED50 (Rattus norvegicus [3]) was 3.7 mg/kg and the logP ([4]; read-out: logP) was 4.66.

Compound Cc1c(OC(C)C2=NCCN2)cccc1N(C)C (centres undefined) has an ED50 (Rattus norvegicus [3]) of 4 mg/kg, a logP ([4]; read-out: logP) of 4 and an Activity (Oryctolagus cuniculus [6]) of 0.

With CCOC(=O)Nc1cccc(OC(C)C2=NCCN2)c1C (centres undefined) the Activity (Rattus norvegicus [2]) was “Active”, the ED50 (Rattus norvegicus [3]) was 9.5 mg/kg and the ED50 (Rattus norvegicus [7]) was 4.6 mg/kg. For the same compound, the logP ([4]; read-out: logP) was 3.27 and the Activity (Oryctolagus cuniculus [6]) was 0.

In the case of Cc1c(N)cc(N)c(C)c1OC(C)C1=NCCN1 (centres undefined), the ED50 (Rattus norvegicus [8]) is reported as 32 mg/kg.

With Cc1cccc(C)c1OC(C)C1=NC2CCCCC2N1 (centres undefined) the ED50 (Rattus norvegicus [3]) was 24.1 mg/kg.

With Cc1c(N)cccc1OC(C)C1=NCCN1 (stereo in doubt; 32) [listing 2 of 2 here] the Activity (Rattus norvegicus [2]) was “Active”.

With Cc1cccc(C)c1OC(CCO)C1=NCCN1 (centres undefined) the Activity (Rattus norvegicus [9]) was “inactive”, the ED50 (Rattus norvegicus [3]) was 6.9 mg/kg and the Activity (Oryctolagus cuniculus [5]) was “moderate activity”. For the same compound, the logP ([4]; read-out: logP) was 2.89.

Compound Cc1cccc(C)c1OC(C)C1=NCCS1 (centres undefined) has an ED50 (Rattus norvegicus [3]) of over 100 mg/kg and an Activity (Oryctolagus cuniculus [6]) of 0.

Cc1cc(C(=O)OC(C)(C)C)cc(C)c1OC(C)C1=NCCN1 (centres undefined) gave an ED50 (Rattus norvegicus [3]) of over 100 mg/kg.

In the case of Cc1cccc(C)c1NC(C)C1=NCCN1 (centres undefined), the ED50 (Rattus norvegicus [3]) is reported as over 100 mg/kg and the Activity (Oryctolagus cuniculus [6]) is reported as 0.

Cc1cc(Br)c(N)c(C)c1OC(C)C1=NCCN1 (centres undefined) gave an ED50 (Rattus norvegicus [3]) of over 100 mg/kg.

In the case of Cc1cc(C)c(OC(C)C2=NCCN2)c(C)c1 (centres undefined), the Activity (Rattus norvegicus [9]) is reported as “inactive”, the ED50 (Rattus norvegicus [3]) is reported as 11.1 mg/kg and the logP ([4]; read-out: logP) is reported as 5. The Activity (Oryctolagus cuniculus [6]) was 0.

In the case of Cc1cc(C(=O)O)cc(C)c1OC(C)C1=NCCN1 (centres undefined), the ED50 (Rattus norvegicus [3]) is reported as over 100 mg/kg and the Activity (Oryctolagus cuniculus [6]) is reported as 0.

With Cc1cccc(C)c1OC(C)C1=NCCN1 (centres undefined) the Activity (Oryctolagus cuniculus [1]) was “Active”, the ED50 (Rattus norvegicus [3]) was 1.7 mg/kg and the ED50 (Rattus norvegicus [7]) was 2.7 mg/kg. The logP ([4]; read-out: logP) was 4.39.

Work on Cc1cccc(C)c1OC(C)c1nc2ccccc2[nH]1 (centres undefined) yielded an ED50 (Rattus norvegicus [3]) of over 100 mg/kg.

CC(Oc1cccn2ncnc12)C1=NCCN1.CO (centres undefined) showed an ED50 (Rattus norvegicus [3]) of 26.5 mg/kg.

Work on Cc1cc(N)cc(C)c1OC(C)C1=NCCN1 (centres undefined) yielded an Activity (Oryctolagus cuniculus [10]) of 0 and an ED50 (Rattus norvegicus [3]) of over 100 mg/kg.

With Cc1cc([N+](=O)[O-])cc(C)c1OC(C)C1=NCCN1 (centres undefined) the ED50 (Rattus norvegicus [3]) was over 100 mg/kg and the Activity (Oryctolagus cuniculus [6]) was 0.

With Cc1ccc(N)cc1OC(C)C1=NCCN1 (centres undefined) the ED50 (Rattus norvegicus [3]) was over 100 mg/kg and the Activity (Oryctolagus cuniculus [6]) was 0.

In the case of CC(Oc1c(Cl)cccc1Cl)C1=NCCN1 (centres undefined) [LOFEXIDINE], the ED50 (Rattus norvegicus [3]) is reported as under 2 mg/kg.

For CCc1ccccc1OC(C)C1=NCCN1 (centres undefined), the ED50 (Rattus norvegicus [3]) was 22.9 mg/kg, the Activity (Oryctolagus cuniculus [5]) was “moderate activity” and the logP ([4]; read-out: logP) was 4.23.

In the case of Cc1ccc2[nH]ccc2c1OC(C)C1=NCCN1.ClCCl (centres undefined), the ED50 (Rattus norvegicus [3]) is reported as 1.6 mg/kg, the Activity (Rattus norvegicus [11]) is reported as “rats died due to convulsive side effects” and the ED50 (Rattus norvegicus [7]) is reported as 1.2 mg/kg. It also gave a logP ([4]; read-out: logP) of 3.77.

For CCc1cccc(CC)c1OC(C)C1=NCCN1 (centres undefined), the Activity (Oryctolagus cuniculus [1]) was “Active”, the Activity (Rattus norvegicus [9]) was “inactive” and the ED50 (Rattus norvegicus [3]) was 2.3 mg/kg. For the same compound, the logP ([4]; read-out: logP) was 5.41.

Compound CCC(Oc1c(C)cccc1C)C1=NCCN1 (centres undefined) has an ED50 (Rattus norvegicus [3]) of 5.2 mg/kg, a logP ([4]; read-out: logP) of 4.88 and an Activity (Oryctolagus cuniculus [6]) of 0.

For Cc1c(O)cccc1OC(C)C1=NCCN1 (centres undefined), the Activity (Rattus norvegicus [9]) was “inactive”, the ED50 (Rattus norvegicus [3]) was 17.2 mg/kg and the Activity (Oryctolagus cuniculus [5]) was “moderate activity”. It also gave a logP ([4]; read-out: logP) of 3.21.

Clc1cccc(Cl)c1NC1=NCCN1 [CLONIDINE] showed an ED50 (Rattus norvegicus [3]) of 0.3 mg/kg.

Cc1cccc(C)c1SC(C)C1=NCCN1 (centres undefined) showed an ED50 (Rattus norvegicus [3]) of over 100 mg/kg and an Activity (Oryctolagus cuniculus [6]) of 0.

Cc1ccc(OC(C)C2=NCCN2)c(C)c1 (centres undefined) showed an ED50 (Rattus norvegicus [3]) of 24.1 mg/kg and a logP ([4]; read-out: logP) of 4.35.

With CC(Oc1cccc2[nH]ccc12)C1=NCCN1 (centres undefined) the Activity (Oryctolagus cuniculus [1]) was “Active”, the Activity (Rattus norvegicus [2]) was “Active” and the ED50 (Rattus norvegicus [3]) was 5.7 mg/kg. The ED50 (Rattus norvegicus [7]) was 6.6 mg/kg and the logP ([4]; read-out: logP) was 3.12.

Work on CC(Oc1ccc2ccccc2c1)C1=NCCN1 (centres undefined) yielded an ED50 (Rattus norvegicus [3]) of over 100 mg/kg and an Activity (Oryctolagus cuniculus [6]) of 0.

Cc1ccc2ccccc2c1OC(C)C1=NCCN1 (centres undefined) gave an ED50 (Rattus norvegicus [3]) of over 100 mg/kg and an Activity (Oryctolagus cuniculus [6]) of 0.

For Cc1c(N)cccc1OC(C)C1=NCCN1 (centres undefined), the Activity (Oryctolagus cuniculus [1]) was “Active”.

Work on Cc1c(N)cccc1OC(CCO)C1=NCCN1 (centres undefined) yielded an ED50 (Rattus norvegicus [3]) of 1.2 mg/kg, an ED50 (Rattus norvegicus [7]) of 1.3 mg/kg and a logP ([4]; read-out: logP) of 1.2. The Activity (Rattus norvegicus [12]) was “rats died due to exophthalmic side effects”.

For CC(Oc1cccc(N)c1)C1=NCCN1 (centres undefined), the ED50 (Rattus norvegicus [3]) was over 100 mg/kg and the Activity (Oryctolagus cuniculus [6]) was 0.

For CC(Oc1cccc2ccccc12)C1=NCCN1 (centres undefined), the Activity (Rattus norvegicus [9]) was “inactive”, the ED50 (Rattus norvegicus [3]) was 17.9 mg/kg and the ED50 (Rattus norvegicus [7]) was 16.1 mg/kg. The logP ([4]; read-out: logP) was 4.35 and the Activity (Oryctolagus cuniculus [6]) was 0.

With Cc1cccc(C)c1CC(C)C1=NCCN1 (centres undefined) the ED50 (Rattus norvegicus [3]) was over 100 mg/kg and the Activity (Oryctolagus cuniculus [6]) was 0.

Compound Cc1cc(C)c(OC(C)C2=NCCN2)cc1N (centres undefined) has an ED50 (Rattus norvegicus [3]) of 7.8 mg/kg, a logP ([4]; read-out: logP) of 3.01 and an Activity (Oryctolagus cuniculus [6]) of 0.

For Cc1cccc(C)c1OC(C)C1=NCCN1C (centres undefined), the ED50 (Rattus norvegicus [3]) was 32.4 mg/kg.

With CCCc1cccc(CCC)c1OC(C)C1=NCCN1 (centres undefined) the ED50 (Rattus norvegicus [3]) was over 100 mg/kg and the Activity (Oryctolagus cuniculus [5]) was “moderate activity”.

With CCC(Oc1cccc(N)c1C)C1=NCCN1 (centres undefined) the Activity (Rattus norvegicus [2]) was “Active”, the ED50 (Rattus norvegicus [3]) was 4.5 mg/kg and the ED50 (Rattus norvegicus [7]) was 5.2 mg/kg. It also gave a logP ([4]; read-out: logP) of 3.19.

COc1cccc(OC(C)C2=NCCN2)c1C (centres undefined) showed an ED50 (Rattus norvegicus [3]) of over 100 mg/kg.

Work on CC(Oc1cncc2ccccc12)C1=NCCN1 (centres undefined) yielded an ED50 (Rattus norvegicus [3]) of 21.7 mg/kg.

In the case of Cc1cccc(C)c1OCC1=NCCN1, the ED50 (Rattus norvegicus [3]) is reported as over 100 mg/kg and the Activity (Oryctolagus cuniculus [5]) is reported as “moderate activity”.

Compound Cc1cc(Br)cc(C)c1OC(C)C1=NCCN1 (centres undefined) has an ED50 (Rattus norvegicus [3]) of over 100 mg/kg.

Work on Cc1c(N)cccc1OC(C)C1=NCCN1.Cl.Cl (centres undefined) yielded an ED50 (Rattus norvegicus [3]) of 5.6 mg/kg, an ED50 (Rattus norvegicus [7]) of 1.3 mg/kg and a logP [4] of 2.

In the case of Cc1ncccc1OC(C)C1=NCCN1 (centres undefined), the ED50 (Rattus norvegicus [8]) is reported as over 100 mg/kg.
